Data on 5 compounds can be found in patent US20250074910A1, “MENIN INHIBITOR AND USE THEREOF” (HITGEN INC., priority 2021, published 2025).

The target in data set [1] is Menin/MLL-4-43 peptide interaction (Homo sapiens (Human), UniProt O00255). The data set can be described thus: Menin-MLL interaction inhibitory activity assay (fluorescence polarization competition). The following applies: FITC-MLL4-43-peptide, Menin recombinant protein. It counts as binding. The procedure, abridged: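 Menin (8 nM solution) was preincubated 15 min with compound, then FITC-MLL4-43 peptide (10 nM solution) was added and shaken for 60 min at 25 °C. The buffer was 50 mM Tris pH 7.5, 50 mM NaCl, 1 mM DTT. IC50 was derived from fluorescence polarization read at 485/520 nm.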
Chain of Menin/MLL-4-43 peptide interaction (O00255 whole entry, species assumed): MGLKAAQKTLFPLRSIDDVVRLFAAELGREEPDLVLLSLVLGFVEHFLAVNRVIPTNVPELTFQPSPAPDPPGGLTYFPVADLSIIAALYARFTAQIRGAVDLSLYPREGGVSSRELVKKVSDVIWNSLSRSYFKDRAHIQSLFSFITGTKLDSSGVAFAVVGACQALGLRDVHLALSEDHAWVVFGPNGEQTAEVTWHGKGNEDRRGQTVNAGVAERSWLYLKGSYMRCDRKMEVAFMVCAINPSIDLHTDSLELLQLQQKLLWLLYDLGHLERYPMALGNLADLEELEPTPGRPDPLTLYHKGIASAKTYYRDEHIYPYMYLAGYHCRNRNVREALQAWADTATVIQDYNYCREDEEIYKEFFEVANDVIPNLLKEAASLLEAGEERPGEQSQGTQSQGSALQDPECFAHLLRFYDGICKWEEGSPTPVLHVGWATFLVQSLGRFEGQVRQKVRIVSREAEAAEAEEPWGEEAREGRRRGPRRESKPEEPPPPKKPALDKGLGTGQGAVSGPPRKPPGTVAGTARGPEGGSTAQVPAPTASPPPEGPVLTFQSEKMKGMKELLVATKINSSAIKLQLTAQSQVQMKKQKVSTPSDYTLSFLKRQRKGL
For orientation: Polarisation of emitted light reports the rotation of a fluorescent probe.

Data set [2] relates to OCI-AML3. The data set can be described thus: Cell proliferation inhibition (CellTiter-Glo), OCI-AML3 (NPM1 mutation). In kind it is cell-based. The following applies: Homo sapiens, OCI-AML-3, 168 h, OCI-AML3 cells. The procedure, abridged: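 Seed 5,000-20,000 cells/well; add compound to final 1 nM-10 μM; culture 72-168 h at 37° C, 5% CO2; add equal volume CellTiter-Glo, 10 min RT; read luminescence; fit IC50.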
In general terms: ATP-based viability assays read luminescence as a measure of living cells.

Data set [3] in a line: Stability in dog liver microsomes. The following applies: dog, liver microsomes, pH 7.4, Dog; 0.5 mg/mL microsomal protein, 1.00 μM compound, NADPH; read-out: Half life T1/2, dog liver microsomes. In kind it is in vitro ADME. The procedure, abridged:
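Compound at 1.00 μM incubated at 37° C with 0.5 mg/mL liver microsomal protein and 2.00 mM NADPH in 100 mM phosphate buffer pH 7.4, sampled 0–60 min with acetonitrile quench. Parent remaining by LC-MS/MS; T½ from ln-remaining slope, CLint scaled by microsomal concentration and conversion factor.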

The target in data set [4] is hERG potassium ion channel (Homo sapiens (Human), UniProt Q12809). Kind of data set: hERG potassium channel effect test (manual patch clamp, HEK293 cells overexpressing hERG). In kind it is cell-based. The following applies: for inhibition at 30 μM: human, HEK293 cells overexpressing hERG potassium ion channels, read-out: Average inhibition rate of hERG current at the highest compound tested concentration; for IC50: manual patch clamp, highest test concentration 30 μM. As for the experimental part: Test Example 6: hERG Potassium Channel Effect Test
Chain of hERG potassium ion channel (Q12809 whole entry): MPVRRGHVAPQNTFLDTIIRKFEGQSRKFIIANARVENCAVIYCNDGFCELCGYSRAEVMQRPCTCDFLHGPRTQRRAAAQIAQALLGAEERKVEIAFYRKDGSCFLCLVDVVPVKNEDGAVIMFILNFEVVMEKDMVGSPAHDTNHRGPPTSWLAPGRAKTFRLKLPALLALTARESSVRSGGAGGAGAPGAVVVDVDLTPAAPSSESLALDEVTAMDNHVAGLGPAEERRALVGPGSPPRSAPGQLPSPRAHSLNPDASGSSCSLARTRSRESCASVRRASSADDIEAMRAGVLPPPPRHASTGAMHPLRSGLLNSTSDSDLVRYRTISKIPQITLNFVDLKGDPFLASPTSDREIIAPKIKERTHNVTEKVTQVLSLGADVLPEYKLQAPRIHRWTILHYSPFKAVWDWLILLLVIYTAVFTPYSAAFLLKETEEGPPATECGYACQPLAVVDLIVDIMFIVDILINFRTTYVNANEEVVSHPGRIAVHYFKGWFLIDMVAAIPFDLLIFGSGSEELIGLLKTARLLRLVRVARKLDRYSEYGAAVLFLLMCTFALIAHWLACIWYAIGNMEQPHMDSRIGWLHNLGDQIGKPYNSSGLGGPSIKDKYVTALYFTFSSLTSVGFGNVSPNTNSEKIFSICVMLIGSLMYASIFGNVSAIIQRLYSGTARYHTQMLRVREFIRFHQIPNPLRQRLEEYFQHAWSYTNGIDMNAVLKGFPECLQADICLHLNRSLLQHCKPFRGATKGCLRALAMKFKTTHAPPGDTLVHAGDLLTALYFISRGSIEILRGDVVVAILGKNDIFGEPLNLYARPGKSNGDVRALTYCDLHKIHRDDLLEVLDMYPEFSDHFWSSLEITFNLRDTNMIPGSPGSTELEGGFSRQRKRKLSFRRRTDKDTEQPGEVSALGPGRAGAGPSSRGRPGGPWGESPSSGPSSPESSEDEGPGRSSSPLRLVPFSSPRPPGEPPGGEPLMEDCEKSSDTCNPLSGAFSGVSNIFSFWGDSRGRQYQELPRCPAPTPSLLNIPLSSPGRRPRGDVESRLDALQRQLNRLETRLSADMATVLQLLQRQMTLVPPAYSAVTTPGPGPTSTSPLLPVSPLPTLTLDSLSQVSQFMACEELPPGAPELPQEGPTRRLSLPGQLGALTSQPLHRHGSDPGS
The hERG inhibition test was performed on some of the example compounds of the present disclosure using the manual electrophysiological patch clamp method. The cell line was derived from HEK293 cells that overexpressed hERG potassium ion channels. The specific experimental protocol was developed by PharmaCore Labs with reference to literature published in peer-reviewed journals and was performed by PharmaCore Labs in accordance with its standard experimental operating procedures. The highest test concentration was 30 μM.
A general note: hERG is a cardiac potassium channel; its block is linked to QT prolongation.

For the compound `CC(C)N(C(=O)c1cc(F)ccc1Oc1nncnc1N1CC2(CCN(CC3CC4CCC3CC43CCC(=O)N3)CC2)C1)C(C)C` (single isomer, unassigned) [Example 15-1a], in data set [1], the IC50 (as a rule, the concentration that inhibits the measured activity by half) was found to be 34.7 nM. Besides, the concentration for 50% growth inhibition (GI50) (in general, the concentration at which growth is held to half of that of the control) in data set [2] is 82.5 nM. In data set [3], the half-life at 1 μM is greater than 2 h.

On to `COC[C@H]1C[C@]2(CC[C@@H](CN3CCC4(CC3)CN(c3ncnnc3Oc3ccc(F)cc3C(=O)N(C(C)C)C(C)C)C4)CC2)NC1=O` [Example 38-1], for which the figures for the 50% inhibitory concentration (IC50) in data set [1] and in data set [4] were 16.3 nM and greater than 30000 nM, respectively. The compound also yielded a GI50 in data set [2] of 115 nM. The half-life at 1 μM in data set [3] was greater than 2 h. Moreover, the inhibition at 30 μM in data set [4] is 10.3%.

Take `COCC1(COC)C[C@]2(CC[C@@H](CN3CCC4(CC3)CN(c3ncnnc3Oc3ccc(F)cc3C(=O)N(C(C)C)C(C)C)C4)CC2)NC1=O` [Example 20]: in data set [1], the IC50 was determined as 6 nM. Also, halving of growth in data set [2] (GI50) required 35.2 nM. In data set [3], the half-life at 1 μM is greater than 2 h. Besides, in data set [4], the inhibition at 30 μM is 13.2% and the IC50 is greater than 30000 nM.

For the compound `CCN(C(=O)c1cc(F)ccc1Oc1cncnc1N1CC2(CCN(C[C@H]3CC[C@]4(CC3)CC(COC)(COC)C(=O)N4)CC2)C1)C(C)C` [Example 17], in data set [1], the concentration for half-maximal inhibition (IC50) worked out at 5 nM. This compound gave a GI50 in data set [2] of 14.2 nM. The half-life at 1 μM in data set [3] was greater than 2 h.

For `COC[C@@H]1C[C@]2(CC[C@@H](CN3CCC4(CC3)CN(c3ncnnc3Oc3ccc(F)cc3C(=O)N(C(C)C)C(C)C)C4)CC2)NC1=O` [Example 38-2], in data set [1], the IC50 is 2.8 nM. This compound showed a GI50 in data set [2] of 21.8 nM. Besides, the half-life at 1 μM in data set [3] stood at 1.64 h.
